# Test results taken from the supplement of paper PMC10307832.
# Key:
# Experiment in all cases: relative viability (nuclei count vs DMSO), 5 days (fraction); higher = more cells survive
# [1] = compound: CCC1=CN=CN=C1N2CCN(CC2)CC3=NC4=C(N3)C=C(C=C4)C(F)(F)F
# Outline: (§1)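 Lung cancer cell lines received five library-drug doses (not always all listed) spaced by √10, pinned on vehicle-anchored 1536-well plates after an overnight stay at 37 °C. Five days later, with no medium change, nuclei were Hoechst-stained, imaged at 4× and counted with MetaXpress. Viability is treated-well nuclei relative to vehicle-well nuclei, as a median across plates. Passing plates had control CV below 25% and at least one doubling.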
# [2] = compound: CCn1c(-c2nonc2N)nc2cnc(Oc3cccc(NC(=O)c4ccc(OCCN5CCOCC5)cc4)c3)cc21
# Outline: as §1
# Mirin = compound: N=C1NC(=O)/C(=C/c2ccc(O)cc2)S1 [Mirin]
# Outline: as §1
cell line,measurement,setting,value
NCI-H2087,relative viability,[1]; 0.04 µM,1.05
same,relative viability,[1]; 0.1265 µM,0.958
same,relative viability,[1]; 0.4 µM,0.973
same,relative viability,[1]; 1.265 µM,0.854
same,relative viability,[1]; 4 µM,0.716
same,relative viability,[2]; 0.04 µM,1.21
same,relative viability,[2]; 0.1265 µM,0.812
same,relative viability,[2]; 0.4 µM,0.844
same,relative viability,[2]; 1.265 µM,0.698
same,relative viability,[2]; 4 µM,0.637
same,relative viability,Mirin; 0.25 µM,1.01
same,relative viability,Mirin; 0.7906 µM,1
same,relative viability,Mirin; 2.5 µM,0.983
same,relative viability,Mirin; 7.906 µM,0.896
same,relative viability,Mirin; 25 µM,1.2
NCI-H2126,relative viability,[1]; 0.04 µM,1
same,relative viability,[1]; 0.1265 µM,0.977
same,relative viability,[1]; 0.4 µM,0.969
same,relative viability,[1]; 1.265 µM,0.891
same,relative viability,[1]; 4 µM,1.02
same,relative viability,[2]; 0.04 µM,1.09
same,relative viability,[2]; 0.1265 µM,1.04
same,relative viability,[2]; 0.4 µM,0.74
same,relative viability,[2]; 1.265 µM,0.792
same,relative viability,[2]; 4 µM,0.943
same,relative viability,Mirin; 0.25 µM,1.03
same,relative viability,Mirin; 0.7906 µM,0.908
same,relative viability,Mirin; 2.5 µM,0.995
same,relative viability,Mirin; 7.906 µM,1
same,relative viability,Mirin; 25 µM,0.979
NCI-H2170,relative viability,[1]; 0.04 µM,0.946
same,relative viability,[1]; 0.1265 µM,0.97
same,relative viability,[1]; 0.4 µM,0.953
same,relative viability,[1]; 1.265 µM,0.848
same,relative viability,[1]; 4 µM,0.946
same,relative viability,[2]; 0.04 µM,0.95
same,relative viability,[2]; 0.1265 µM,0.953
same,relative viability,[2]; 0.4 µM,0.919
same,relative viability,[2]; 1.265 µM,0.732
same,relative viability,[2]; 4 µM,0.754
same,relative viability,Mirin; 0.25 µM,1.05
same,relative viability,Mirin; 0.7906 µM,0.89
same,relative viability,Mirin; 2.5 µM,0.985
same,relative viability,Mirin; 7.906 µM,0.946
same,relative viability,Mirin; 25 µM,0.933
NCI-H2228,relative viability,[1]; 0.04 µM,1
same,relative viability,[1]; 0.1265 µM,0.858
same,relative viability,[1]; 0.4 µM,0.99
same,relative viability,[1]; 1.265 µM,0.928
same,relative viability,[1]; 4 µM,0.98
same,relative viability,[2]; 0.04 µM,1.26
same,relative viability,[2]; 0.1265 µM,0.964
same,relative viability,[2]; 0.4 µM,0.908
same,relative viability,[2]; 1.265 µM,0.919
same,relative viability,[2]; 4 µM,0.881
same,relative viability,Mirin; 0.25 µM,1.09
same,relative viability,Mirin; 0.7906 µM,0.89
same,relative viability,Mirin; 2.5 µM,0.969
same,relative viability,Mirin; 7.906 µM,0.886
same,relative viability,Mirin; 25 µM,1.02
NCI-H2342,relative viability,[1]; 0.04 µM,0.936
same,relative viability,[1]; 0.1265 µM,0.888
same,relative viability,[1]; 0.4 µM,0.864
same,relative viability,[1]; 1.265 µM,0.543
same,relative viability,[1]; 4 µM,0.72
same,relative viability,[2]; 0.04 µM,1.04
same,relative viability,[2]; 0.1265 µM,1.05
same,relative viability,[2]; 0.4 µM,0.874
same,relative viability,[2]; 1.265 µM,0.748
same,relative viability,[2]; 4 µM,0.804
same,relative viability,Mirin; 0.25 µM,0.998
same,relative viability,Mirin; 0.7906 µM,1.02
same,relative viability,Mirin; 2.5 µM,1.03
same,relative viability,Mirin; 7.906 µM,0.668
same,relative viability,Mirin; 25 µM,0.888
NCI-H2347,relative viability,[1]; 0.04 µM,1.05
same,relative viability,[1]; 0.1265 µM,0.986
same,relative viability,[1]; 0.4 µM,1.04
same,relative viability,[1]; 1.265 µM,0.827
same,relative viability,[1]; 4 µM,1.09
same,relative viability,[2]; 0.04 µM,1.1
same,relative viability,[2]; 0.1265 µM,1.02
same,relative viability,[2]; 0.4 µM,0.878
same,relative viability,[2]; 1.265 µM,0.504
same,relative viability,[2]; 4 µM,0.546
same,relative viability,Mirin; 0.25 µM,0.962
same,relative viability,Mirin; 0.7906 µM,0.972
same,relative viability,Mirin; 2.5 µM,1.08
same,relative viability,Mirin; 7.906 µM,0.957
same,relative viability,Mirin; 25 µM,1.03
NCI-H2405,relative viability,[1]; 0.04 µM,0.968
same,relative viability,[1]; 0.1265 µM,0.989
same,relative viability,[1]; 0.4 µM,0.981
same,relative viability,[1]; 4 µM,1.11
same,relative viability,[2]; 0.04 µM,1.05
same,relative viability,[2]; 0.1265 µM,0.668
same,relative viability,[2]; 0.4 µM,0.254
same,relative viability,[2]; 1.265 µM,0.318
same,relative viability,[2]; 4 µM,0.327
same,relative viability,Mirin; 0.25 µM,0.967
same,relative viability,Mirin; 0.7906 µM,0.928
same,relative viability,Mirin; 2.5 µM,0.974
same,relative viability,Mirin; 7.906 µM,0.968
same,relative viability,Mirin; 25 µM,0.997
NCI-H3122,relative viability,[1]; 0.04 µM,1.05
same,relative viability,[1]; 0.1265 µM,1.01
same,relative viability,[1]; 0.4 µM,0.964
same,relative viability,[1]; 1.265 µM,1.03
same,relative viability,[1]; 4 µM,1.1
same,relative viability,[2]; 0.04 µM,1.01
same,relative viability,[2]; 0.1265 µM,0.978
same,relative viability,[2]; 0.4 µM,0.924
same,relative viability,[2]; 1.265 µM,0.755
same,relative viability,[2]; 4 µM,0.695
same,relative viability,Mirin; 0.25 µM,1.03
same,relative viability,Mirin; 0.7906 µM,0.953
same,relative viability,Mirin; 2.5 µM,1.02
same,relative viability,Mirin; 7.906 µM,1.08
same,relative viability,Mirin; 25 µM,1.1
PC-3 [JPC-3],relative viability,[1]; 0.04 µM,1.01
same,relative viability,[1]; 0.1265 µM,0.947
same,relative viability,[1]; 0.4 µM,0.965
same,relative viability,[1]; 1.265 µM,1.01
same,relative viability,[1]; 4 µM,1.02
same,relative viability,[2]; 0.04 µM,1.02
same,relative viability,[2]; 0.1265 µM,0.976
same,relative viability,[2]; 0.4 µM,0.982
same,relative viability,[2]; 1.265 µM,0.947
same,relative viability,[2]; 4 µM,0.926
same,relative viability,Mirin; 0.25 µM,1.07
same,relative viability,Mirin; 0.7906 µM,1.04
same,relative viability,Mirin; 2.5 µM,1.01
same,relative viability,Mirin; 7.906 µM,1.12
same,relative viability,Mirin; 25 µM,1.2
PC-14,relative viability,[1]; 0.04 µM,0.97
same,relative viability,[1]; 0.1265 µM,0.919
same,relative viability,[1]; 0.4 µM,0.99
same,relative viability,[1]; 1.265 µM,0.979
same,relative viability,[1]; 4 µM,1
same,relative viability,[2]; 0.04 µM,1.08
same,relative viability,[2]; 0.1265 µM,0.834
same,relative viability,[2]; 0.4 µM,0.809
same,relative viability,[2]; 1.265 µM,0.729
same,relative viability,[2]; 4 µM,0.653
same,relative viability,Mirin; 0.25 µM,0.975
same,relative viability,Mirin; 0.7906 µM,0.906
same,relative viability,Mirin; 2.5 µM,1.03
same,relative viability,Mirin; 7.906 µM,1.05
same,relative viability,Mirin; 25 µM,1.13
RERF-LC-KJ,relative viability,[1]; 0.04 µM,0.956
same,relative viability,[1]; 0.1265 µM,0.968
same,relative viability,[1]; 0.4 µM,1.01
same,relative viability,[1]; 1.265 µM,0.924
same,relative viability,[1]; 4 µM,0.991
same,relative viability,[2]; 0.04 µM,1.02
same,relative viability,[2]; 0.1265 µM,0.971
same,relative viability,[2]; 0.4 µM,0.872
same,relative viability,[2]; 1.265 µM,0.619
same,relative viability,[2]; 4 µM,0.637
same,relative viability,Mirin; 0.25 µM,1.07
same,relative viability,Mirin; 0.7906 µM,1.08
same,relative viability,Mirin; 2.5 µM,1.01
same,relative viability,Mirin; 7.906 µM,1.04
same,relative viability,Mirin; 25 µM,1
SK-LU-1,relative viability,[1]; 0.04 µM,1.1
same,relative viability,[1]; 0.1265 µM,0.969
same,relative viability,[1]; 0.4 µM,0.967
same,relative viability,[1]; 1.265 µM,0.808
same,relative viability,[1]; 4 µM,0.994
same,relative viability,[2]; 0.04 µM,1.16
same,relative viability,[2]; 0.1265 µM,0.795
same,relative viability,[2]; 0.4 µM,0.672
same,relative viability,[2]; 1.265 µM,0.452
same,relative viability,[2]; 4 µM,0.566
same,relative viability,Mirin; 0.25 µM,1.14
same,relative viability,Mirin; 0.7906 µM,1.07
same,relative viability,Mirin; 2.5 µM,1.07
same,relative viability,Mirin; 7.906 µM,0.809
same,relative viability,Mirin; 25 µM,0.905
SK-MES-1,relative viability,[1]; 0.04 µM,1.04
same,relative viability,[1]; 0.1265 µM,0.975
same,relative viability,[1]; 0.4 µM,0.983
same,relative viability,[1]; 1.265 µM,1
same,relative viability,[1]; 4 µM,0.985
same,relative viability,[2]; 0.04 µM,1.1
same,relative viability,[2]; 0.1265 µM,0.915
same,relative viability,[2]; 0.4 µM,0.82
same,relative viability,[2]; 1.265 µM,0.709
same,relative viability,[2]; 4 µM,0.746
same,relative viability,Mirin; 0.25 µM,1.02
same,relative viability,Mirin; 0.7906 µM,1.1
same,relative viability,Mirin; 2.5 µM,1.05
same,relative viability,Mirin; 7.906 µM,1.12
same,relative viability,Mirin; 25 µM,1.28
SW 900,relative viability,[1]; 0.04 µM,0.842
same,relative viability,[1]; 0.1265 µM,0.928
same,relative viability,[1]; 0.4 µM,0.866
same,relative viability,[1]; 1.265 µM,0.626
same,relative viability,[1]; 4 µM,0.857
same,relative viability,[2]; 0.04 µM,0.892
same,relative viability,[2]; 0.1265 µM,0.946
same,relative viability,[2]; 0.4 µM,0.917
same,relative viability,[2]; 1.265 µM,0.716
same,relative viability,[2]; 4 µM,0.83
same,relative viability,Mirin; 0.25 µM,1
same,relative viability,Mirin; 0.7906 µM,0.773
same,relative viability,Mirin; 2.5 µM,0.888
same,relative viability,Mirin; 7.906 µM,0.98
same,relative viability,Mirin; 25 µM,0.869
SW 1573,relative viability,[1]; 0.04 µM,0.925
same,relative viability,[1]; 0.1265 µM,1.08
same,relative viability,[1]; 0.4 µM,0.912
same,relative viability,[1]; 1.265 µM,0.858
same,relative viability,[1]; 4 µM,0.941
same,relative viability,[2]; 0.04 µM,1.1
same,relative viability,[2]; 0.1265 µM,0.992
same,relative viability,[2]; 0.4 µM,0.74
same,relative viability,[2]; 1.265 µM,0.488
same,relative viability,[2]; 4 µM,0.338
same,relative viability,Mirin; 0.25 µM,0.986
same,relative viability,Mirin; 0.7906 µM,0.825
same,relative viability,Mirin; 2.5 µM,0.986
same,relative viability,Mirin; 7.906 µM,0.968
same,relative viability,Mirin; 25 µM,0.779
